The source of these data is EP1494749B1, “PROCESS FOR PREPARATION OF PHARMACEUTICAL COMPOSITION CONTAINING ANTIRETROVIRAL PROTEASE INHIBITOR WITH IMPROVED BIOAVAILABILITY” (Cadila Pharmaceuticals Limited, priority 2002, dated 2003).

The nature of one series: clinical. The conditions noted are these: human, in vivo. How it is done: 2. Kit In a further aspect, the present invention provides a kit comprising one or more pharmaceutically acceptable doses of an antiretroviral protease inhibitor as defined above and one or more pharmaceutically acceptable doses of piperine or an isomer thereof. […] However, the scope of this invention is not limited by them. […] Nelfinavir i) Two tablets each containing 250 mg of Nelfinavir and a tablet containing 20 mg of piperine. ii) Two tablets each containing 250 mg of Nelfinavir and two tablets each containing 15 mg of piperine. Saquinavir i) Three capsules each containing 200 mg of Saquinavir and three tablets each containing 5 mg of piperine. ii) Four capsules each containing 200 mg of Saquinavir and a tablets containing 20 mg of piperine. 3. The following are Examples of excipients (i.e. other than piperine) which can be used to prepare pharmaceutical compositions of the present invention. However, the scope of this invention is not limited by them. Saquinavir : • Capsule: medium chain mono- and diglycerides, povidone and dl-alpha tocopherol. […] 4. […] However, the scope of this invention is not limited by them. […] 5.

For series [1] the following is noted: in vivo; cited from earlier work.

Broadly, the Tmax is the time at which the peak concentration occurs.

Molecules are shown by their SMILES.

Take `CC(C)(C)NC(=O)[C@@H]1CN(Cc2cccnc2)CCN1C[C@@H](O)C[C@@H](Cc1ccccc1)C(=O)N[C@H]1c2ccccc2C[C@H]1O` [Indinavir]: the time of peak concentration (Tmax) in the series “clinical” is 1.58 h. Also, in series [1], the “reduction in AUC” value is reported as 77% ± 8%.
